Source: patent US20220096516A1, “OLIGONUCLEOTIDE MOLECULE AND APPLICATION THEREOF IN TUMOR THERAPY” (Ractigen Therapeutics, priority 2019, published 2022)
d = 2'-deoxy (DNA); r = 2'-OH (RNA)

Test system: LHPP gene
Assay: High-throughput screening of saRNAs targeting LHPP promoter: LHPP mRNA by one-step RT-qPCR in Huh7 cells
Type: cell-based, human
Conditions: 10 nM saRNA, 72 hours, relative to control (Mock)
Outline: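 Huh7 cells were transfected with 10 nM saRNA using RNAiMax and lysed 72 h later. LHPP mRNA was quantified by one-step RT-qPCR in triplicate wells. Expression was normalised to HPRT1 and TBP and given as fold change versus mock-transfected cells.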

Substance | Fold of changes in relative LHPP mRNA expression level [fold] | Fold of changes in relative LHPP mRNA expression level (log2)
RAG7-879: saRNA duplex; sense GUAAAGUGUUCUCGUUUCUTT (SEQ ID NO: 40), antisense AGAAACGAGAACACUUUACTT (SEQ ID NO: 204) (sugars from the 5' end r19 d2, backbone not given here) | 1.44 | 0.53
RAG7-883: saRNA duplex; sense AGAAGUAAAGUGUUCUCGUTT (SEQ ID NO: 161), antisense ACGAGAACACUUUACUUCUTT (SEQ ID NO: 325) (sugars from the 5' end r19 d2, backbone not given here) | 1.11 | 0.14
RAG7-884: saRNA duplex; sense CAGAAGUAAAGUGUUCUCGTT (SEQ ID NO: 101), antisense CGAGAACACUUUACUUCUGTT (SEQ ID NO: 265) (sugars from the 5' end r19 d2, backbone not given here) | 1.22 | 0.28
RAG7-885: saRNA duplex; sense CCAGAAGUAAAGUGUUCUCTT (SEQ ID NO: 147), antisense GAGAACACUUUACUUCUGGTT (SEQ ID NO: 311) (sugars from the 5' end r19 d2, backbone not given here) | 1.14 | 0.18
RAG7-886: saRNA duplex; sense ACCAGAAGUAAAGUGUUCUTT (SEQ ID NO: 25), antisense AGAACACUUUACUUCUGGUTT (SEQ ID NO: 189) (sugars from the 5' end r19 d2, backbone not given here) | 1.52 | 0.60
RAG7-887: saRNA duplex; sense GACCAGAAGUAAAGUGUUCTT (SEQ ID NO: 51), antisense GAACACUUUACUUCUGGUCTT (SEQ ID NO: 215) (sugars from the 5' end r19 d2, backbone not given here) | 1.37 | 0.46
RAG7-889: saRNA duplex; sense UGGACCAGAAGUAAAGUGUTT (SEQ ID NO: 115), antisense ACACUUUACUUCUGGUCCATT (SEQ ID NO: 279) (sugars from the 5' end r19 d2, backbone not given here) | 1.19 | 0.25
RAG7-890: saRNA duplex; sense UUGGACCAGAAGUAAAGUGTT (SEQ ID NO: 76), antisense CACUUUACUUCUGGUCCAATT (SEQ ID NO: 240) (sugars from the 5' end r19 d2, backbone not given here) | 1.28 | 0.36
RAG7-892: saRNA duplex; sense UGUUGGACCAGAAGUAAAGTT (SEQ ID NO: 2), antisense CUUUACUUCUGGUCCAACATT (SEQ ID NO: 166) (sugars from the 5' end r19 d2, backbone not given here) | 2.05 | 1.03
RAG7-893: saRNA duplex; sense AUGUUGGACCAGAAGUAAATT (SEQ ID NO: 14), antisense UUUACUUCUGGUCCAACAUTT (SEQ ID NO: 178) (sugars from the 5' end r19 d2, backbone not given here) | 1.63 | 0.70
RAG7-894: saRNA duplex; sense UAUGUUGGACCAGAAGUAATT (SEQ ID NO: 37), antisense UUACUUCUGGUCCAACAUATT (SEQ ID NO: 201) (sugars from the 5' end r19 d2, backbone not given here) | 1.45 | 0.54
RAG7-896: saRNA duplex; sense GCUAUGUUGGACCAGAAGUTT (SEQ ID NO: 69), antisense ACUUCUGGUCCAACAUAGCTT (SEQ ID NO: 233) (sugars from the 5' end r19 d2, backbone not given here) | 1.30 | 0.38
RAG7-897: saRNA duplex; sense AGCUAUGUUGGACCAGAAGTT (SEQ ID NO: 65), antisense CUUCUGGUCCAACAUAGCUTT (SEQ ID NO: 229) (sugars from the 5' end r19 d2, backbone not given here) | 1.31 | 0.39
RAG7-898: saRNA duplex; sense AAGCUAUGUUGGACCAGAATT (SEQ ID NO: 59), antisense UUCUGGUCCAACAUAGCUUTT (SEQ ID NO: 223) (sugars from the 5' end r19 d2, backbone not given here) | 1.34 | 0.43
RAG7-899: saRNA duplex; sense AAAGCUAUGUUGGACCAGATT (SEQ ID NO: 84), antisense UCUGGUCCAACAUAGCUUUTT (SEQ ID NO: 248) (sugars from the 5' end r19 d2, backbone not given here) | 1.26 | 0.33
RAG7-902: saRNA duplex; sense CUCAAAGCUAUGUUGGACCTT (SEQ ID NO: 50), antisense GGUCCAACAUAGCUUUGAGTT (SEQ ID NO: 214) (sugars from the 5' end r19 d2, backbone not given here) | 1.38 | 0.46
RAG7-905: saRNA duplex; sense AAGCUCAAAGCUAUGUUGGTT (SEQ ID NO: 92), antisense CCAACAUAGCUUUGAGCUUTT (SEQ ID NO: 256) (sugars from the 5' end r19 d2, backbone not given here) | 1.24 | 0.31
RAG7-907: saRNA duplex; sense GAAAGCUCAAAGCUAUGUUTT (SEQ ID NO: 22), antisense AACAUAGCUUUGAGCUUUCTT (SEQ ID NO: 186) (sugars from the 5' end r19 d2, backbone not given here) | 1.55 | 0.63
RAG7-908: saRNA duplex; sense UGAAAGCUCAAAGCUAUGUTT (SEQ ID NO: 31), antisense ACAUAGCUUUGAGCUUUCATT (SEQ ID NO: 195) (sugars from the 5' end r19 d2, backbone not given here) | 1.49 | 0.57
RAG7-909: saRNA duplex; sense UUGAAAGCUCAAAGCUAUGTT (SEQ ID NO: 23), antisense CAUAGCUUUGAGCUUUCAATT (SEQ ID NO: 187) (sugars from the 5' end r19 d2, backbone not given here) | 1.53 | 0.61
RAG7-911: saRNA duplex; sense CUUUGAAAGCUCAAAGCUATT (SEQ ID NO: 160), antisense UAGCUUUGAGCUUUCAAAGTT (SEQ ID NO: 324) (sugars from the 5' end r19 d2, backbone not given here) | 1.11 | 0.15
RAG7-914: saRNA duplex; sense CUUCUUUGAAAGCUCAAAGTT (SEQ ID NO: 143), antisense CUUUGAGCUUUCAAAGAAGTT (SEQ ID NO: 307) (sugars from the 5' end r19 d2, backbone not given here) | 1.14 | 0.19
RAG7-916: saRNA duplex; sense CUCUUCUUUGAAAGCUCAATT (SEQ ID NO: 33), antisense UUGAGCUUUCAAAGAAGAGTT (SEQ ID NO: 197) (sugars from the 5' end r19 d2, backbone not given here) | 1.48 | 0.56
RAG7-917: saRNA duplex; sense UCUCUUCUUUGAAAGCUCATT (SEQ ID NO: 64), antisense UGAGCUUUCAAAGAAGAGATT (SEQ ID NO: 228) (sugars from the 5' end r19 d2, backbone not given here) | 1.32 | 0.40
